Results published in paper PMC11976424 (Journal of Advanced Research, 2024).

How the values were obtained:
[1] = target: AMPKα1β1γ1 (AMP-activated protein kinase) (Homo sapiens, UniProt Q13131); experiment: SPR; assay type: binding
[2] = target: AMPKα2β1γ1 (AMP-activated protein kinase) (Homo sapiens, UniProt P54619+P54646+Q9Y478); experiment: SPR; assay type: binding
AMPKα2β1γ1 (AMP-activated protein kinase), sequence (P54646 whole entry): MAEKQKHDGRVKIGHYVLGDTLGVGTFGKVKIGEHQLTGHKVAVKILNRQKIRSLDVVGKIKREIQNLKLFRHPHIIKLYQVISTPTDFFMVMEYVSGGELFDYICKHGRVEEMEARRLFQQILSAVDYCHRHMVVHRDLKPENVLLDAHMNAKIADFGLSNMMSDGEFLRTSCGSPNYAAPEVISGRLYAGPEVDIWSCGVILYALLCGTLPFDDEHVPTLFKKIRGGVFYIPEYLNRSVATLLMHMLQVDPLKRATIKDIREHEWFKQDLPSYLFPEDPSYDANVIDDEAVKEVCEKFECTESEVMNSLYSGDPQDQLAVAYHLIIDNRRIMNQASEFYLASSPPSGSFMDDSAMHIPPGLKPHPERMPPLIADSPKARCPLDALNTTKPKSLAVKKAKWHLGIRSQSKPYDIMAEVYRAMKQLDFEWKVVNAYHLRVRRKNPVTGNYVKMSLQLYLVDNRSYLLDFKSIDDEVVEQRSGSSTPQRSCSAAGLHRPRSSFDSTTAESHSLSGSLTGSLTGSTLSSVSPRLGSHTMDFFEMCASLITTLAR
AMPKα2β1γ1 (AMP-activated protein kinase), sequence (Q9Y478 2-270 partner): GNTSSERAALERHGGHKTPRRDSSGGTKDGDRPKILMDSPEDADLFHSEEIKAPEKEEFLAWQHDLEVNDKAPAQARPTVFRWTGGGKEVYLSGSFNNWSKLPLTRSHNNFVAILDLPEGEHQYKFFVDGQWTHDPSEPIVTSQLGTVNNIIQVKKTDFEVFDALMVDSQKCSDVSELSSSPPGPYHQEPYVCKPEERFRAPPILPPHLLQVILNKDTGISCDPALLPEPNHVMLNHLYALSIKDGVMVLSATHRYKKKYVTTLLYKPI
AMPKα2β1γ1 (AMP-activated protein kinase), sequence (P54619 whole entry partner): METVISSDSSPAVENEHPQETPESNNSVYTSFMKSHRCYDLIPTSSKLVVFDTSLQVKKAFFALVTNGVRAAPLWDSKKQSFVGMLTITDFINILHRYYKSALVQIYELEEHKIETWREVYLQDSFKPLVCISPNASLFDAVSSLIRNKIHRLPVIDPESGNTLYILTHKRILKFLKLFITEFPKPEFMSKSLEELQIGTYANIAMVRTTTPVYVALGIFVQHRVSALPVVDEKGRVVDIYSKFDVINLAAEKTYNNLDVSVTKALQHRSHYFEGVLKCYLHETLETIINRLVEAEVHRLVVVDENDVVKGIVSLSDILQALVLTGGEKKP

AMPKα1β1γ1 (AMP-activated protein kinase), sequence (Q13131 whole entry): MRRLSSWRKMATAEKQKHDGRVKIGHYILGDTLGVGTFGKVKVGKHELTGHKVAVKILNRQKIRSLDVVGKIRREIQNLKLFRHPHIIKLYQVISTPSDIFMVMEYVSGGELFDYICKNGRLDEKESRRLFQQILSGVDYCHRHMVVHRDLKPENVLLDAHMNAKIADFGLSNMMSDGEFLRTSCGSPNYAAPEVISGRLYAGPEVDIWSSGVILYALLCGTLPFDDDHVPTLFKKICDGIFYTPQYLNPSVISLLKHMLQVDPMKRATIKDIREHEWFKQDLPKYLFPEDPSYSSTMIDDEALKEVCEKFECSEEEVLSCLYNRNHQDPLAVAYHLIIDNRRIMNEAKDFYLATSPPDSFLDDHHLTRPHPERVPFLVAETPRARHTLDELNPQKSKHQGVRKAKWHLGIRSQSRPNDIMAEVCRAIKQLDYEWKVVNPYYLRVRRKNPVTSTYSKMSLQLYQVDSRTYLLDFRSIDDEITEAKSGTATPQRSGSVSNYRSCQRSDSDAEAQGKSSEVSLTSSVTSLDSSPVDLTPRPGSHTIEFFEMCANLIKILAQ
AMPKα1β1γ1 (AMP-activated protein kinase), sequence (Q9Y478 2-270 partner): as the sequence (Q9Y478 2-270 partner) above
AMPKα1β1γ1 (AMP-activated protein kinase), sequence (P54619 whole entry partner): as the sequence (P54619 whole entry partner) above

SMILES: OC[C@H]1O[C@@H](Oc2c(O)cc(O)cc2/C=C/c2ccc(O)cc2)[C@H](O)[C@@H](O)[C@@H]1O [TSG, 2,3,5,4′-tetrahydroxystilbene-2-O-β-D-glucoside]
- Kd [1]: 3.77 µM
- Kd [2]: 4.67 µM
